According to patent US7094524B2, “Thermally development imaging materials having backside stabilizers” (Eastman Kodak Company, priority 2003, dated 2006):

Assay: pH of 0.005 molar solution in 15% methanol/85% water
Type: physicochemical
From the text: TABLE I also includes vapor pressure (VP) and pKa values for the various backside stabilizers.

## C1CNCCN1 [AB-1]
  pH: 10.4

## C1CN2CCN1CC2 [AB-2]
  pH: 9.8

## CN(C)C(=N)N(C)C [AB-3]
  pH: 11.8

## OCCN(CCO)CCO [AB-5]
  pH: 9.1

## C1CCC2=NCCCN2CC1 [AB-6, 1,8-diazabicyclo[5.4.0]undec-7-ene]
  pH: 11.8

## c1ccc(Nc2ccccn2)nc1 [AB-7]
  pH: 8.5

## N=C(Nc1ccccc1)Nc1ccccc1 [AB-8]
  pH: 10.6

## c1ccc(CN(Cc2ccccc2)Cc2ccccc2)cc1 [AB-9]
  pH: 8.6
